Series [1] relates to influenza virus strain A/chicken/Kurgan/Russia/02/05 (H5N1). On the set-up: species or system white mice. Particulars: mouse, in vivo, po.
The subject of series [2] is severe acute respiratory syndrome virus. On the set-up: species or system Syrian hamsters. Particulars: hamster, in vivo, po.
The nature of series [3]: Acute toxicity study of glutaryl histamine. Particulars: male, nonlinear white (outbred), mouse, in vivo, po.

Where “and” joins values, the source holds several entries; their conditions need not be identical. Equal values may be shown once. Read-outs that look alike come from different tables or passages of the source.

The record followed here is patent publication US9504673B2, “Agent for the prophylaxis and treatment of highly pathogenic infectious diseases” (priority 2009, dated 2016).

Turning to `CCOC(=O)c1c(CSc2ccccc2)n(C)c2cc(Br)c(O)c(CN(C)C)c12` [Arbidol ®, reference compound], in series [1] (135 mg/kg), the Death rate was 15/20 and 18/20; the “Increase of mean lifetime Δ” value was 1.4 days and 1.1 days; the “Mean lifetime of animals in the group” value is 8.0 days and 7.2 days.

On to `O=C(O)CCCC(=O)NCCc1c[nH]cn1` [glutaryl histamine], for which, in series [1] (5 mg/kg), the Death rate is given as 12/20; the Deaths came to 11; the “Increase of mean lifetime Δ” value is 2.7 days and 1.8 days; the “Mean lifetime of animals in the group” value is 10.9 days and 10.0 days. The “Protective efficacy against death, %” value in series [1] (5 mg/kg) is 45% and 40%. In series [1] (15 mg/kg), the Death rate is 12/20 and 13/20; the “Increase of mean lifetime Δ” value is 2.4 days and 2.0 days; the “Mean lifetime of animals in the group” value was 11.0 days and 8.7 days; the “Protective efficacy against death, %” value is 40% and 35%. Moreover, in series [2] (5 mg/kg), the “Therapeutic efficacy, %” value is 20.0% and 30.0%; the “Virus yield in the lungs at peak of infection (on day 4) 1 g PFU/ml” value was 7.5 1 g PFU/ml and 7.0 1 g PFU/ml; the “Virus yield in the lungs at peak of infection (on day 4) Δ, 1 g” value was 0.8 1 g and 0.9 1 g. In series [2] (15 mg/kg), the “Therapeutic efficacy, %” value is 40%; the “Virus yield in the lungs at peak of infection (on day 4) 1 g PFU/ml” value is 3.8 1 g PFU/ml; the “Virus yield in the lungs at peak of infection (on day 4) Δ, 1 g” value is reported as 2.4 1 g. Moreover, the median lethal dose (LD50) in series [3] was above 10000 mg/kg.

One may read the LD50 as the dose expected to kill half of the subjects tested. Read a high LD50 as lower toxicity.
